The source made the active and inactive calls. How the calls were made is not given here.

The assay concerns MRP1 cells, doxorubicin viability shift, 10 uM compound. Nature of the assay: doxorubicin EC50 increase in MRP-1 cells, dose response, cell-based, doxorubicin EC50 shift (AID 844). Particulars: for EC50: measured here: doxorubicin EC50 with compound.

On to `CCOC(=O)Cc1csc(NC(=O)c2c(-c3ccccc3)noc2C)n1`, for which the fold increase in Dox EC50 was 0.44 (inactive) and the concentration for a half-maximal effect (EC50) was determined as 2.4 µM.

Take `N=C(N)SCc1cccc2ccccc12`: the fold increase in Dox EC50 is 0.35 (inactive) and the EC50 was determined as 1.9 µM.

For `Cn1c(C(=O)NCc2ccccc2)cc2oc3ccccc3c21`, the fold increase in Dox EC50 was 1.46 (inactive) and the EC50 was determined as 7.9 µM.

For the compound `COc1ccc2cc(-c3cc(C(=O)O)c4ccccc4n3)ccc2c1`, the fold increase in Dox EC50 is 1.07 (inactive) and the EC50 came out at 5.75 µM.

In the case of `Cn1c(=O)n(C/C=C/c2ccccc2)c(=O)c2c1nc1n2CCCN1c1ccc(F)cc1`, the fold increase in Dox EC50 is 0.76 (inactive) and the EC50 was 4.12 µM.

With `O=C(COC(=O)C1CC2C=CC1C2)Nc1ccc2c(c1)OC(F)(F)O2` (stereo not given), the fold increase in Dox EC50 is 1.21 (inactive) and the EC50 is 6.54 µM.

In the case of `COCC(=O)Nc1nnc(COc2ccc(Cl)cc2)s1`, the fold increase in Dox EC50 was 1.44 (inactive) and the EC50 was 7.75 µM.

Turning to `Cc1ccc2[nH]c(=O)c(C(c3nnnn3C3CCCC3)N3CCCc4ccccc43)cc2c1` (stereo not given), the fold increase in Dox EC50 was 1 (inactive) and the EC50 was 5.41 µM.

On to `CCN(CC(=O)NC(C)C)C(=O)c1ccc(Cl)cc1`, for which the fold increase in Dox EC50 was 0.45 (inactive) and the EC50 amounted to 2.41 µM.

Take `Cc1ccc(-c2noc(C3CCCN(S(=O)(=O)c4ccc5ccccc5c4)C3)n2)o1` (stereo not given): the fold increase in Dox EC50 is 1.58 and the EC50 was determined as 8.55 µM.

On to `COc1ccc(C2C(C(=O)Nc3cccc(C)n3)CCC(=O)N2c2ccc(OC)cc2)cc1` (stereo not given), for which the fold increase in Dox EC50 is 0.64 (inactive) and the EC50 stood at 3.44 µM.

As to `Cc1cc(/C=C2\SC(=S)NC2=O)c(C)n1C`, the fold increase in Dox EC50 was 1.44 (inactive) and the EC50 turned out to be 7.78 µM.

Consider `CCOC(=O)Cc1csc(NC(=S)NC(=O)C(C)(C)C)n1`, for which the fold increase in Dox EC50 is 1.2 (inactive) and the half-maximal effective concentration (EC50) was 6.45 µM.

In the case of `N#CC1=C2C=Cc3ccccc3N2CCCC1=O`, the fold increase in Dox EC50 is 1.28 (inactive) and the EC50 was 6.9 µM.

As for `CCCCCCn1c(O)c(/C=C2\C=NN=C2c2ccccc2)sc1=S`, the fold increase in Dox EC50 is 0.77 (inactive) and the EC50 came out at 4.16 µM.

In the case of `CC1(C)O[C@@H]2C[C@H]3[C@@H]4CCC5=CC(=O)C=C[C@]5(C)[C@@]4(F)[C@@H](O)C[C@]3(C)[C@]2(C(=O)CO)O1`, the fold increase in Dox EC50 is 0.62 (inactive) and the EC50 worked out at 3.33 µM.

Consider `Cc1ccc(S(=O)(=O)Nc2nc3ccccc3nc2NCc2ccc3c(c2)OCO3)cc1C`, for which the fold increase in Dox EC50 is 1.02 (inactive) and the EC50 was determined as 5.49 µM.

Turning to `Fc1ccc(N2CCN(c3ncnc4c3nnn4Cc3ccccc3Cl)CC2)cc1`, the fold increase in Dox EC50 is 0.86 (inactive) and the EC50 was 4.67 µM.

Consider `Cc1c(C(=O)OC2CCC(C)CC2)[nH]c2c1C(=O)CCC2` (stereo not given), for which the fold increase in Dox EC50 was 0.93 (inactive) and the 50% effective concentration (EC50) was 5.01 µM.

With `CC1=C(C(=O)Nc2ccccc2C)C(c2ccc(C)o2)N2C(=O)CSC2=N1` (stereo not given), the fold increase in Dox EC50 was 1.01 (inactive) and the EC50 is 5.43 µM.

`CC1=NN(c2ccc(C)cc2C)C(=O)C1C(c1ccccc1O)C1C(=O)N(c2ccc(C)cc2C)N=C1C` (stereo not given): the fold increase in Dox EC50 is 0.71 (inactive) and the EC50 was found to be 3.81 µM.

`CC(C)c1ccc(CNc2cc(N3CCCC3)ccc2[N+](=O)[O-])cc1`: the fold increase in Dox EC50 is 0.81 (inactive) and the EC50 worked out at 4.36 µM.

Turning to `COc1ccc(NC(=O)CCCC2CCCCC2)cc1S(=O)(=O)N1CCCCC1`, the fold increase in Dox EC50 is 1.68 and the EC50 turned out to be 9.05 µM.

On to `CC1(C)CC(=O)C2=C(C1)N=C1SCCC(=O)N1C2c1ccc(C(F)(F)F)cc1` (stereo not given), for which the fold increase in Dox EC50 was 1.21 (inactive) and the EC50 is 6.51 µM.

As for `C=C1c2cc(CC)ccc2NC(=O)N1c1ccc(C)cc1`, the fold increase in Dox EC50 is 0.44 (inactive) and the EC50 was determined as 2.37 µM.
